Experimental data from US11873298B2, “Compounds and uses thereof” (JANSSEN PHARMACEUTICA NV, priority 2017, dated 2024).
pIC50: −log10 of the molar value.

What was measured:
SCD1 = biological target: T1, SCD1 (Homo sapiens, UniProt O00767); test: Growth inhibition of humanized yeast strain expressing SCD1 as sole desaturase; type: cell-based
T1 construct: host or cells: S. cerevisiae ole1Δ strain (W303 pdr1Δ pdr3Δ background), plasmid pRS316 with TDH3 promoter and CYC1 terminator
T1 sequence (O00767 1-359): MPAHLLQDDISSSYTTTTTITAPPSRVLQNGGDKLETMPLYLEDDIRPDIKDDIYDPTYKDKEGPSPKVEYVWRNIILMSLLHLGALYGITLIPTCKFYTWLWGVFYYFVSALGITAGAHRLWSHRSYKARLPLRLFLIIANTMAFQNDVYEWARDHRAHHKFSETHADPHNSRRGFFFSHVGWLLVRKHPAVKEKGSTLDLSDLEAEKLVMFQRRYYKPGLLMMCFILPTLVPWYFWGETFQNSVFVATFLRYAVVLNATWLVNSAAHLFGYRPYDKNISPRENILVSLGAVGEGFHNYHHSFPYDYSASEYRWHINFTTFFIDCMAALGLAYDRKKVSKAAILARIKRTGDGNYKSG
Summary of the method: (§1)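 Plasmid-complemented ole1Δ yeast, drug-pump deleted (pdr1Δ pdr3Δ), depend solely on the introduced Ole1, SCD1 or SCD5 desaturase. Compounds are added from DMSO to cells in uracil-free galactose medium, 2× density 0.02, and OD600 is read after 24 h or 40 h respectively.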

SCD5 = biological target: T2, SCD5 (Homo sapiens, UniProt Q86SK9); test: Growth inhibition of humanized yeast strain expressing SCD5 as sole desaturase; type: cell-based
T2 construct: host or cells: S. cerevisiae ole1Δ strain (W303 pdr1Δ pdr3Δ background), plasmid pRS316 with TDH3 promoter and CYC1 terminator
T2 sequence (Q86SK9 1-330): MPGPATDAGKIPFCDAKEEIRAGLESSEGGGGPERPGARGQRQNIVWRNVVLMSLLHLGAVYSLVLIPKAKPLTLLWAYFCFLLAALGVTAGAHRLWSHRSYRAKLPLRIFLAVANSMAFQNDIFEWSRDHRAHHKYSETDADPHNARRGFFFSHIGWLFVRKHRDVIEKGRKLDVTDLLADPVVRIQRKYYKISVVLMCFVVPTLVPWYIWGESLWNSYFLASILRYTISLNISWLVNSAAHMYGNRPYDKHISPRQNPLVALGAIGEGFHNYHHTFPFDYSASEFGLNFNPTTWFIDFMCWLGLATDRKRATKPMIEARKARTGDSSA
Summary of the method: as §1

[1] = growth inhibition of humanized yeast strain expressing human SCD1
[2] = growth inhibition of humanized yeast strain expressing human SCD5
[3] = humanized yeast strain expressing SCD1
[4] = humanized yeast strain expressing SCD5

Compound	pIC50 (SCD1; humanized yeast strain, 40 h)	pIC50 (SCD5; humanized yeast strain, 40 h)	also measured
COC(=O)N1CC2(C1)CN(c1noc(-c3ccc4cnn(C5COC5)c4c3)n1)C2 [Compound 1063]	< 4.35	5.46	
O=C(c1ccccc1F)N1CCC(c2noc(-c3ccc4cnn(C5COC5)c4c3)n2)CC1 [Compound 696]			pIC50 (SCD1; [1]): < 4.35; pIC50 (SCD5; [2]): 7.10
O=C(c1ccccc1Cl)N1CCC(c2noc(-c3ccc4cnn(C5COC5)c4c3)n2)CC1 [Compound 697]			pIC50 (SCD1; [1]): < 4.35; pIC50 (SCD5; [2]): 7.23
CCC(=O)N1CCC(c2noc(-c3ccc(N4CCOCC4)cc3)n2)CC1 [Compound 1166]	< 4.35	< 4.35	
CC(C)(C)OC(=O)N1CCC(c2nc(-c3cccc(C4CCCOC4)c3)no2)CC1 (centres unmarked) [Compound 824]	< 4.35	6.03	
Cn1ncc2ccc(-c3noc(C4CCNCC4)n3)cc21 [Compound 500]			pIC50 (SCD1; [3]): < 4.35; pIC50 (SCD5; [4]): < 4.35
CC(C)(C)OC(=O)N1CCC(c2noc(-c3cc(C4CCOC4)ccn3)n2)CC1 (centres unmarked) [Compound 1192]	< 4.35	7.40	
Cn1cc(-c2cc(-c3nc(C4CCN(C(=O)OC5(C)CC5)CC4)no3)ccn2)cn1 [Compound 1186]	5.00	5.22	
COC(=O)N1CCC(c2noc(-c3ccc4cnn(C5COC5)c4c3)n2)CC1 [Compound 676]			pIC50 (SCD1; [1]): < 4.35; pIC50 (SCD5; [2]): 7.89
COC(=O)N1CCC(c2noc(-c3cnc4cnn(C5COC5)c4c3)n2)CC1 [Compound 1052]	< 4.35	6.60	
CC(C)(C)OC(=O)N1CC2(CC(c3noc(-c4ccc5cnn(C6COC6)c5c4)n3)C2)C1 [Compound 1020]	4.84	6.77	
CO[C@H]1C[C@@H](n2ncc3ccc(-c4noc(C5CCN(C(=O)OC(C)(C)C)CC5)n4)cc32)C1 [Compound 867]	< 4.35	5.72	
CC(C)c1noc2ccc(-c3noc(C4CCN(C(=O)C5CC5)CC4)n3)cc12 [Compound 941]	< 4.35	4.69	
CCOC(=O)N1CCN(c2nc(-c3ccc4cnn(C(C)C)c4c3)no2)CC1 [Compound 668]			pIC50 (SCD1; [1]): < 4.35; pIC50 (SCD5; [2]): 6.14
O=C(C1CCC1)N1CCC(c2noc(-c3ccc4cnn(C5COC5)c4c3)n2)CC1 [Compound 880]	< 4.35	8.00	
CC(C)(C)OC(=O)N1CCC(c2nc(-c3ccc4cnn([C@H]5C[C@](C)(O)C5)c4c3)no2)CC1 [Compound 821]	< 4.35	5.30	
CC(C)n1ncc2ccc(-c3noc(C4CCN(C(=O)c5ncc(Cl)o5)CC4)n3)cc21 [Compound 758]	< 4.35	5.28	
CC(C)n1ncc2ccc(-c3noc(C4CCN(C(=O)CNC(=O)c5ccc(F)cc5)CC4(F)F)n3)cc21 (centres unmarked) [Compound 520]			pIC50 (SCD1; [3]): < 4.35; pIC50 (SCD5; [4]): < 4.35
O=C(N1CCC(c2noc(-c3ccnc(NC4COC4)c3)n2)CC1)C1(F)CC1 [Compound 1116]	< 4.35	5.85	

Compound	pIC50 (SCD1; humanized yeast strain, 40 h)	pIC50 (SCD5; humanized yeast strain, 40 h)	also measured
CC(C)n1ncc2ccc(-c3nnc(C4CCN(C(=O)CC5(C)CC5)CC4)[nH]3)cc21 [Compound 691]			pIC50 (SCD1; [1]): < 4.35; pIC50 (SCD5; [2]): < 4.35
CC(C)(C)OC(=O)N1CCC(c2noc(-c3ccc(F)c(N4CCOCC4)c3)n2)CC1 [Compound 1149]	< 4.35	8.00	
CC(C)n1ncc2ccc(-c3noc(C4CCN(C(=O)C56CCC(F)(CC5)CC6)CC4)n3)cc21 [Compound 755]	< 4.35	5.27	
COCC(C)(C)n1ncc2ccc(-c3noc(C4CCN(C(=O)CC(C)(C)C)CC4)n3)cc21 [Compound 802]	< 4.35	4.85	
CC(C)C(=O)N1CCC(c2noc(-c3ccnc(NC4COC4)c3)n2)CC1 [Compound 1153]	5.71	6.08	
COC(=O)N1CCC(c2noc(-c3ccc4cnn(C5COC(C)(C)C5)c4c3)n2)CC1 (centres unmarked) [Compound 1094]	< 4.35	4.76	
COC(=O)N1CCC(c2noc(-c3cc(Br)c4cnn(C5COC5)c4c3)n2)CC1 [Compound 1043]	< 4.35	7.96	
CC(C)(C)OC(=O)N1CCC(c2noc(-c3ccn(C4COC4)c(=O)c3)n2)CC1 [Compound 1121]	< 4.35	4.81	
CCC(=O)N1CCC(c2noc(-c3ccc4cnn([C@H]5CCOC5)c4c3)n2)CC1 [Compound 1049]	< 4.35	7.92	
O=C(OC1CC1)N1CCN(c2noc(-c3ccc4cnn(C5COC5)c4c3)n2)CC(F)(F)C1 [Compound 1083]	< 4.35	7.48	
O=C(C1CC1)N1CCN(c2noc(-c3ccnc(Cl)c3)n2)CC1 [Compound 1118]	< 4.35	< 4.35	
CC(C)(C)OC(=O)N1CCC(c2nc(-c3ccc4cnn(C5CC(F)(F)C5)c4c3)no2)CC1 [Compound 742]			pIC50 (SCD1; [1]): < 4.35; pIC50 (SCD5; [2]): 5.30
CC(C)n1ncc2ccc(-c3noc(N4CCN(C(=O)c5ccccc5)CC4)n3)cc21 [Compound 362]			SCD1 % Max Inhibition (SCD1; [3]): 67.00%; pIC50 (SCD5; [4]): < 4.35; SCD5 % Max Inhibition (SCD5; [4]): 2.26%
C[C@H]1C[C@H](c2noc(-c3ccc4cnn(C5COC5)c4c3)n2)CCN1C(=O)C1CCC1 [Compound 1056]	< 4.35	8.33	
O[C@H]1C[C@@H](n2ncc3ccc(-c4nc(N5CCn6c(Cl)cnc6C5)no4)cc32)C1 [Compound 958]	< 4.35	4.46	
COC(=O)N1CCN(c2noc(-c3ccnc(OC4COC4)c3)n2)CC1 [Compound 1002]	< 4.35	5.30	
CC(C)(C)OC(=O)N1CCN(c2noc(-c3ccnc(NC4COC4)c3)n2)CC1 [Compound 818]	< 4.35	6.25	
CC(C)(C)OC(=O)N1CCC(c2noc(-c3cc4c(Cl)nccn4c3)n2)CC1 [Compound 882]	5.18	5.72	
Cc1nn(C)c2cc(-c3noc(C4CCN(C(=O)CCC(F)(F)F)CC4)n3)ccc12 [Compound 518]			pIC50 (SCD1; [3]): < 4.35; pIC50 (SCD5; [4]): 5.53

Compound	pIC50 (SCD1; humanized yeast strain, 40 h)	pIC50 (SCD5; humanized yeast strain, 40 h)	also measured
CC(C)n1ncc2ccc(-c3nc(C4CCN(C(=O)CC(C)(C)C)C4)no3)cc21 (centres unmarked) [Compound 542]			pIC50 (SCD1; [3]): < 4.35; pIC50 (SCD5; [4]): 5.13
COC(=O)N1CCC(c2noc(-c3ccnc(-c4cnn(C)c4)c3)n2)CC1 [Compound 1265]			pIC50 (SCD1; yeast strain expressing human SCD1 as sole desaturase, Table 8): 4.87; pIC50 (SCD5; yeast strain expressing human SCD5 as sole desaturase, Table 8): 4.96
CC(C)n1nc(CCN)c2ccc(-c3noc(C4CCN(C(=O)OC(C)(C)C)CC4)n3)cc21 [Compound 761]	< 4.35	< 4.35	
COC(=O)N1CCC(c2nc(-c3ccc4cnn([C@@H]5CCOC5)c4c3)no2)CC1 [Compound 907]	< 4.35	7.40	
Cc1nn(C)c2cc(-c3noc(C4CCN(C(=O)CNC(=O)c5ccc(Cl)cc5)CC4(F)F)n3)ccc12 (centres unmarked) [Compound 554]			pIC50 (SCD1; [3]): 5.39; pIC50 (SCD5; [4]): 5.97
CC1(C(=O)N2CCC(c3noc(-c4ccnc(C5CCOC5)c4)n3)CC2)CCC1 (centres unmarked) [Compound 1179]	< 4.35	6.96	
O=C(CC1CC1)N1CCC(c2noc(-c3ccnc(C4CCOC4)c3)n2)CC1 (centres unmarked) [Compound 1100]	< 4.35	6.13	
CC(C)n1ncc2ccc(-c3noc(N4CCn5ccnc5C4)n3)cc21 [Compound 804]	< 4.35	< 4.35	
CC(C)C(=O)N1CCC(c2noc(-c3ccc(F)c(N4CCOCC4)c3)n2)CC1 [Compound 1162]	4.76	7.69	
CC(=O)NCCc1nn(C(C)C)c2cc(-c3noc(C4CCN(C(=O)OC(C)(C)C)CC4)n3)ccc12 [Compound 760]	< 4.35	< 4.35	
CC(C)(C)OC(=O)N1CCC(c2nc(-c3ccc4cn[nH]c4c3)no2)CC1 [Compound 912]	< 4.35	5.70	
CC(C)(C)OC(=O)N1CCC(c2cc(-c3cc4c(cn3)cnn4C3COC3)no2)CC1 [Compound 1144]	5.75	8.00	
Cc1nn(C)c2cc(-c3noc(N4CCN(C(=O)OC5(C)CC5)CC4)n3)ccc12 [Compound 613]			pIC50 (SCD1; [1]): < 4.35; pIC50 (SCD5; [2]): < 4.35
COC(=O)N1CCC(c2noc(-c3cc(F)c4cnn(C5COC5)c4c3)n2)CC1 [Compound 875]	< 4.35	7.70	
CC(C)(C)OC(=O)N1CCN(c2nnc(-c3ccc4cnn(C5COC5)c4c3)o2)CC1 [Compound 976]	< 4.35	5.27	
CC(C)(C)CC(=O)N1CCC(c2nc(-c3ccc4cnn(C5CCOC5)c4c3)no2)CC1 (centres unmarked) [Compound 775]	< 4.35	7.66	
O=C(C1CC1)N1CCN(c2noc(-c3ccnc(NC4COC4)c3)n2)CC1 [Compound 1117]	< 4.35	< 4.35	
CC(C)n1ncc2ccc(-c3noc(C4CCN(C(=O)C5(C)CCCO5)CC4)n3)cc21 (centres unmarked) [Compound 703]			pIC50 (SCD1; [1]): < 4.35; pIC50 (SCD5; [2]): 6.92
